# Experimental data: patent publication US20240327412A1, “FACTOR XIIA INHIBITORS” (KALVISTA PHARMACEUTICALS LIMITED, priority 2021, published 2024)
# Molecular target: T1, Human Factor XIIa (Homo sapiens, UniProt P00748)
# T1 construct: Proteolytic cleavage of FXII to heavy and light chains of FXIIa dramatically increases catalytic activity; purchased Enzyme Research Laboratories
# T1 sequence (P00748 373-615 limits assumed): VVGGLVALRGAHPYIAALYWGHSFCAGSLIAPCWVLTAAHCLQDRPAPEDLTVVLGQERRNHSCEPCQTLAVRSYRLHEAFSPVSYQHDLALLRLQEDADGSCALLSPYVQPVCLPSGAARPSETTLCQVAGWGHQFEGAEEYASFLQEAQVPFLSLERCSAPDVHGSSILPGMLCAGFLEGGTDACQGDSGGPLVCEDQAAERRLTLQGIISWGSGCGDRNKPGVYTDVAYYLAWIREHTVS
# T1 sequence (P00748 20-372 partner limits assumed): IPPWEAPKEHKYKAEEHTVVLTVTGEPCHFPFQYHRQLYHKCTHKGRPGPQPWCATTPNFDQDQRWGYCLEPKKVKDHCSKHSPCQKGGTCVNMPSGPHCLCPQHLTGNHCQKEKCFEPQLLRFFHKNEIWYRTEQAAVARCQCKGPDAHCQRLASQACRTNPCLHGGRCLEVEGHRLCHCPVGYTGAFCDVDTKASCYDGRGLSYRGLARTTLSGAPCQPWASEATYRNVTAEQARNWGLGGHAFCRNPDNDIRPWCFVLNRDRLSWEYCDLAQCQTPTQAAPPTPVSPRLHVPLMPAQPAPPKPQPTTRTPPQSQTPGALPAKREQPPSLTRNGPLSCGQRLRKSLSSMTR
# Assay: Determination of FXIIa inhibition (fluorogenic substrate H-DPro-Phe-Arg-AFC, IC50 assay)
# Assay type: biochemical
# Conditions: substrate at Km concentration, 25° C.; category scale; read-out: Human FXII IC50 (nm)
# Summary of the method: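 Human FXIIa incubated at 25° C. with fluorogenic H-DPro-Phe-Arg-AFC at its Km concentration plus varying compound levels. Linear fluorescence increase over 5 min taken as % activity; IC50 is concentration halving uninhibited activity.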
row,Compound,IC50 [nM]
1,"Nc1nccc2c(NCC34CC(COc5ccc6nncn6c5)(CCO3)C4)cccc12 [Example 10929, N5-((5-(([1,2,4]triazolo[4,3-a]pyridin-6-yloxy)methyl)-2-oxabicyclo[3.1.1]heptan-1-yl)methyl)isoquinoline-1,5-diamine]",300 to 1000
2,"Cn1ccc(OCC23CN(C(=O)OCc4ccc5ccccc5c4)C(CNc4cccc5c(N)nccc45)(C2)C3)cc1=O [Example 12024, naphthalen-2-ylmethyl 1-(((1-aminoisoquinolin-5-yl)amino)methyl)-4-(((1-methyl-2-oxo-1,2-dihydropyridin-4-yl)oxy)methyl)-2-azabicyclo[2.1.1]hexane-2-carboxylate]",100 to 300
3,"CC1(C)NC(=O)c2ccc(OCC34COC(CNc5cccc6c(N)nccc56)(C3)C4)cc21 [Example 6650, 5-((1-(((1-aminoisoquinolin-5-yl)amino)methyl)-2-oxabicyclo[2.1.1]hexan-4-yl)methoxy)-3,3-dimethylisoindolin-1-one]",100 to 300
4,"Cn1ccc(OCC23CN(C(=O)OC(C)(C)C)C(CNc4ccc5cnccc5c4)(C2)C3)cc1=O [Example 12045, tert-butyl 1-((isoquinolin-6-ylamino)methyl)-4-(((1-methyl-2-oxo-1,2-dihydropyridin-4-yl)oxy)methyl)-2-azabicyclo[2.1.1]hexane-2-carboxylate]",10000 to 40000
5,"Cn1ccc(OCC23CC(CNc4cccc5c(N)nccc45)(CN2S(=O)(=O)CCc2ccccc2)C3)cc1=O [Example 13014, 4-((4-(((1-aminoisoquinolin-5-yl)amino)methyl)-2-(phenethylsulfonyl)-2-azabicyclo[2.1.1]hexan-1-yl)methoxy)-1-methylpyridin-2(1H)-one]",100 to 300
6,"CN1Cc2ccc(OCC34CN(C(=O)OCc5ccccc5)C(CNc5cccc6c(N)nccc56)(C3)C4)cc2C1=O [Example 12012, benzyl 1-(((1-aminoisoquinolin-5-yl)amino)methyl)-4-(((2-methyl-3-oxoisoindolin-5-yl)oxy)methyl)-2-azabicyclo[2.1.1]hexane-2-carboxylate]",100 to 300
7,"Nc1nccc2c(NCC34CC(COc5ccc6ncc(F)n6c5)(CO3)C4)cccc12 [Example 6625, N5-((4-(((3-fluoroimidazo[1,2-a]pyridin-6-yl)oxy)methyl)-2-oxabicyclo[2.1.1]hexan-1-yl)methyl)isoquinoline-1,5-diamine]",300 to 1000
8,"Nc1nccc2c(NCC34CC(COc5ccc6ncoc6c5)(CCO3)C4)cccc12 [Example 10973, N5-((5-((benzo[d]oxazol-6-yloxy)methyl)-2-oxabicyclo[3.1.1]heptan-1-yl)methyl)isoquinoline-1,5-diamine]",1000 to 3000
9,"Nc1nccc2c(NCC34CC(COc5ccon5)(CCO3)C4)cccc12 [Example 10936, N5-((5-((isoxazol-3-yloxy)methyl)-2-oxabicyclo[3.1.1]heptan-1-yl)methyl)isoquinoline-1,5-diamine]",3000 to 10000
10,"Nc1nccc2c(NCC34CC(COc5ccc6c(c5)CCNC6=O)(CCO3)C4)cccc12 [Example 10938, 6-((1-(((1-aminoisoquinolin-5-yl)amino)methyl)-2-oxabicyclo[3.1.1]heptan-5-yl)methoxy)-3,4-dihydroisoquinolin-1(2H)-one]",300 to 1000
11,"COc1ccncc1OCC12CCOC(CNc3cccc4c(N)nccc34)(C1)C2 [Example 10954, N5-((5-(((4-methoxypyridin-3-yl)oxy)methyl)-2-oxabicyclo[3.1.1]heptan-1-yl)methyl)isoquinoline-1,5-diamine]",3000 to 10000
12,"Cc1cnc2cc(OCC34CCOC(CNc5cccc6c(N)nccc56)(C3)C4)ccn12 [Example 10930, N5-((5-(((3-methylimidazo[1,2-a]pyridin-7-yl)oxy)methyl)-2-oxabicyclo[3.1.1]heptan-1-yl)methyl)isoquinoline-1,5-diamine]",10 to 100
13,"Nc1nccc2c(NCC34CC(COc5ccc6c(c5)CNC6=O)(C3)C4)cccc12 [Example 1133, 5-((3-(((1-aminoisoquinolin-5-yl)amino)methyl)bicyclo[1.1.1]pentan-1-yl)methoxy)isoindolin-1-one]",100 to 300
14,"Nc1nccc2c(NCC34CC(COc5cc6n(c(=O)c5)CCC6)(CCO3)C4)cccc12 [Example 10972, 7-((1-(((1-aminoisoquinolin-5-yl)amino)methyl)-2-oxabicyclo[3.1.1]heptan-5-yl)methoxy)-2,3-dihydroindolizin-5(1H)-one]",10 to 100
15,"Cc1cc(OCC23CCOC(CNc4cccc5c(N)nccc45)(C2)C3)ncn1 [Example 10971, N5-((5-(((6-methylpyrimidin-4-yl)oxy)methyl)-2-oxabicyclo[3.1.1]heptan-1-yl)methyl)isoquinoline-1,5-diamine]",300 to 1000
16,"Nc1nccc2c(NCC34CC(COc5ccn(C(F)F)c(=O)c5)(CCO3)C4)cccc12 [Example 10975, 4-((1-(((1-aminoisoquinolin-5-yl)amino)methyl)-2-oxabicyclo[3.1.1]heptan-5-yl)methoxy)-1-(difluoromethyl)pyridin-2(1H)-one]",300 to 1000
17,"Nc1nccc2c(NCC34CC(COc5ccn6cnnc6c5)(C3)C4)cccc12 [Example 1135, N5-((3-(([1,2,4]triazolo[4,3-a]pyridin-7-yloxy)methyl)bicyclo[1.1.1]pentan-1-yl)methyl)isoquinoline-1,5-diamine]",300 to 1000
18,"COc1cc(OCC23COC(CNc4cccc5c(N)nccc45)(C2)C3)cn2ccnc12 [Example 6631, N5-((4-(((8-methoxyimidazo[1,2-a]pyridin-6-yl)oxy)methyl)-2-oxabicyclo[2.1.1]hexan-1-yl)methyl)isoquinoline-1,5-diamine]",100 to 300
19,"Nc1nccc2c(NCC34CC(COc5ccnnc5)(CCO3)C4)cccc12 [Example 10963, N5-((5-((pyridazin-4-yloxy)methyl)-2-oxabicyclo[3.1.1]heptan-1-yl)methyl)isoquinoline-1,5-diamine]",3000 to 10000
20,"Cn1ccc(OCC23CN(C(=O)Cc4ccccc4)C(CNc4cccc5c(N)nccc45)(C2)C3)cc1=O [Example 12028, 4-((1-(((1-aminoisoquinolin-5-yl)amino)methyl)-2-(2-phenylacetyl)-2-azabicyclo[2.1.1]hexan-4-yl)methoxy)-1-methylpyridin-2(1H)-one]",10 to 100
21,"COc1ccc(C(=O)N2CC3(COc4ccn(C)c(=O)c4)CC2(CNc2cccc4c(N)nccc24)C3)cc1 [Example 12071, 4-((1-(((1-aminoisoquinolin-5-yl)amino)methyl)-2-(4-methoxybenzoyl)-2-azabicyclo[2.1.1]hexan-4-yl)methoxy)-1-methylpyridin-2(1H)-one]",10 to 100
22,"Cn1ccc(OCC23CN(C(=O)c4ccccc4)C(CNc4cccc5c(N)nccc45)(C2)C3)cc1=O [Example 12035, 4-((1-(((1-aminoisoquinolin-5-yl)amino)methyl)-2-benzoyl-2-azabicyclo[2.1.1]hexan-4-yl)methoxy)-1-methylpyridin-2(1H)-one]",10 to 100
23,"CC1(C)OC2(COc3cccc4c(N)nccc34)CC1(COc1ccn3ccnc3c1)C2 [Example 7702, 5-((4-((imidazo[1,2-a]pyridin-7-yloxy)methyl)-3,3-dimethyl-2-oxabicyclo[2.1.1]hexan-1-yl)methoxy)isoquinolin-1-amine]",300 to 1000
24,"Cn1ccc(OCC23CN(c4cccnc4)C(CNc4cccc5c(N)nccc45)(C2)C3)cc1=O [Example 12064, 4-((1-(((1-aminoisoquinolin-5-yl)amino)methyl)-2-(pyridin-3-yl)-2-azabicyclo[2.1.1]hexan-4-yl)methoxy)-1-methylpyridin-2(1H)-one]",10 to 100
25,"Cn1ccc(OCC23CN(c4nccc(-c5ccccc5)n4)C(CNc4cccc5c(N)nccc45)(C2)C3)cc1=O [Example 12031, 4-((1-(((1-aminoisoquinolin-5-yl)amino)methyl)-2-(4-phenylpyrimidin-2-yl)-2-azabicyclo[2.1.1]hexan-4-yl)methoxy)-1-methylpyridin-2(1H)-one]",100 to 300
26,"Cn1ccc(OCC23CN(c4nc5ccccc5o4)C(CNc4cccc5c(N)nccc45)(C2)C3)cc1=O [Example 12057, 4-((1-(((1-Aminoisoquinolin-5-yl)amino)methyl)-2-(benzo[d]oxazol-2-yl)-2-azabicyclo[2.1.1]hexan-4-yl)methoxy)-1-methylpyridin-2(1H)-one]",1 to 10
27,"Cn1ccc(OCC23CN(C(=O)OCc4ccccc4Cl)C(CNc4cccc5c(N)nccc45)(C2)C3)cc1=O [Example 12023, 2-chlorobenzyl 1-(((1-aminoisoquinolin-5-yl)amino)methyl)-4-(((1-methyl-2-oxo-1,2-dihydropyridin-4-yl)oxy)methyl)-2-azabicyclo[2.1.1]hexane-2-carboxylate]",10 to 100
28,"Cc1cc(OCC23CCOC(CNc4cccc5c(N)nccc45)(C2)C3)ccn1 [Example 10953, N5-((5-(((2-methylpyridin-4-yl)oxy)methyl)-2-oxabicyclo[3.1.1]heptan-1-yl)methyl)isoquinoline-1,5-diamine]",100 to 300
